The values that follow come from patent US20220098197A1, “SALTS OF HETEROCYCLIC COMPOUND AND USE THEREOF” (priority 2019, published 2022).

In series [1] the test system is CS-induced ALI mice. The series is described as follows: CS-induced lung injury model: lung weight ratio (coefficient). Type of series: in vivo, Balb/c mice. To be noted: CT-NA 10 and 30 mg/kg intragastric; CS exposure; p<0.05. As for the experimental part:
(§1) Model preparation: The mice were randomly divided into 5 groups (12 mice in each group), which were the control group (the mice were exposed to fresh air), the saline group (the mice were exposed to cigarette smoke), dexamethasone (Dex) group (1 mg/kg) (the mice were exposed to cigarette smoke), CT-NA 10 mg/kg group and CT-NA 30 mg/kg group (the mice were exposed to cigarette smoke). According to the grouping, the mice were intragastrically administered saline, Dex and CT-NA, respectively. Thereafter, the mice were exposed to fresh air or cigarette smoke generated from 3R4F research-grade cigarettes (containing about 600 mg TPM/m^3 and 29.9 mg nicotine/m^3) in a cuboid plastic box (65×50x×45 cm). Ten cigarettes were burned every day for seven days. After one cigarette was burned, the next cigarette was ignited. […] 24 hrs after the last exposure to the cigarette smoke, the partial pressure of oxygen (PO2) of all mice was measured by the Moor VMS-OXY™ measuring instrument, which was used to measure the oxygenated/deoxygenated hemoglobin concentration and oxygen saturation (percentage) in the microcirculation at the wavelength range of 500 to 650 nm. […] As an index of pulmonary edema, the lung weight ratio was measured by dividing the individual lung weight of each mouse after aspirating the blood tissue from the lung surface, by the total body weight.

A further series deals with RAW 264.7 macrophages. The series is described as follows: Cell viability (MTT) assay with CSE/PGD2. It is filed as cell-based, mouse. As to conditions: 24 hrs. As for the experimental part:
The cell lines of RAW 264.7 macrophages and mouse leukemic mononuclear macrophages were purchased from American Type Culture Collection (ATCC, Manassas, Va., USA). RAW 264.7 macrophage was cultured in RPMI-1640 medium containing penicillin (100 U/ml), streptomycin (100 μg/ml) and 10% FBS. The cytotoxicity of CT-NA (0-100 μM) alone, and in a combination of PGD2 (0-100 μM) and CSE (1-10%) on RAW264.7 macrophage was assessed using methylthiazole-tetrazole (MTT) assay according to the manufacturer's protocol. Briefly, RAW 264.7 macrophages were seeded in a 96-well plate at a concentration of 4×10^5 cells/ml for 24 hrs, and then exposed to CT-NA (0-100 μM) at 37° C. for 1 hour. Next, RAW 264.7 macrophages were further exposed to CSE (4%) and PGD2 (10 μM) for 24 hrs, and then treated with MTT (5 mg/ml) at 37° C. for 4 hrs. Then, the supernatant of each well was replaced with DMSO (200 μl/well), and the absorbance at 570 nm was measured.

The subject of series [2] is CS-induced ALI mice. The series is described as follows: CS-induced lung injury model: inflammatory cells counting in BALF. Type of series: in vivo, Balb/c mice. As to conditions: intragastric before CS exposure, 7 days; CT-NA 10 and 30 mg/kg, Dex 1 mg/kg; BALF 24 hrs after last CS; p<0.01. The method, then:
as §1, with “Specific pathogen-free (SPF) female Balb/c mice (22-28 g; aged 8 weeks) were purchased from Shanghai SIPPR-BK Experimental Animal Co., Ltd. […] Model” for “Model”, “days.” for “days. After one cigarette was burned, the next cigarette was ignited.”, “The supernatant was aliquoted and stored at −80° C. until” for “As an index of pulmonary edema,”, “cytokine or albumin concentration” for “lung weight ratio”, “measured. […]” for “measured by dividing the individual lung weight of each mouse after aspirating the blood tissue from the lung surface, by the total body weight.”

Turning to `CN([C@@H]1CCc2c(CC(=O)[O-])c3cccnc3n2C1)S(=O)(=O)c1ccc(F)cc1.[Na+]` [Sodium salt hydrate], the lung weight coefficient result with CS-induced ALI mice [1] was “partially reduced”. Moreover, the “cytotoxicity (MTT), CSE plus CT-NA” value in the series on RAW 264.7 macrophages (CSE 4% plus CT-NA up to 100 μM) is recorded as “non-toxic”. Besides, the “cytotoxicity (MTT), PGD2 plus CT-NA” value with RAW 264.7 macrophages (PGD2 (10 μM) plus CT-NA up to 100 μM) is “non-toxic”. For the same compound, the “number of total cells, macrophages and neutrophils in BALF” value in the series with CS-induced ALI mice [2] is “significantly reduced”.
